From article PMC7529758, “Over-activation of a nonessential bacterial protease DegP as an antibiotic strategy” (Communications Biology, 2020) come the findings set out here.

To fix the notation:
B3: DegP^S210A (enzyme, E. coli, UniProt P0C0V0 27-474, looked up)
chain: AETSSATTAQQMPSLAPMLEKVMPSVVSINVEGSTTVNTPRMPRNFQQFFGDDSPFCQEGSPFQSSPFCQGGQGGNGGGQQQKFMALGSGVIIDADKGYVVTNNHVVDNATVIKVQLSDGRKFDAKMVGKDPRSDIALIQIQNPKNLTAIKMADSDALRVGDYTVAIGNPFGLGETVTSGIVSALGRSGLNAENYENFIQTDAAINRGNAGGALVNLNGELIGINTAILAPDGGNIGIGFAIPSNMVKNLTSQMVEYGQVKRGELGIMGTELNSELAKAMKVDAQRGAFVSQVLPNSSAAKAGIKAGDVITSLNGKPISSFAALRAQVGTMPVGSKLTLGLLRDGKQVNVNLELQQSSQNQVDSSSIFNGIEGAEMSNKGKDQGVVVNNVKTGTPAAQIGLKKGDVIIGANQQAVKNIAELRKVLDSKPSVLALNIQRGDSTIYLLMQ
notes: periplasmic protease DegP (HtrA family) of E. coli, active-site mutant S210A; In the crystals it resembles the dodecameric cage of 3OTP (two trimers in the asymmetric unit); also called DegP active-site mutant

Series [1] addresses T1, DegP^S210A (Escherichia coli, UniProt P0C0V0, C83S/C95S/N322C/S236A).
T1 construct: pET22b-degP(full length; C57S/C69S/N296C/S210A)_6His; 6His (C); made in house; host or cells: E. coli (inferred from the pET plasmid)
Kind of series: FRET assay of DegP cage assembly. The class given is biochemical. On the procedure:
Fluorescence resonance energy transfer (FRET) assay was performed as previously described[14],[22]. Equimolar amounts of fluorescence donor- and acceptor-labeled DegP^S210A (total 0.1, 1 or 3 μM) was mixed in a buffer containing 50 mM sodium phosphate (pH 8) and 100 mM NaCl. Two-fold serial dilutions of activators were added to the DegP mixtures. Alexa Fluor 555 C2-maleinide and 647 C2-maleinide (life technologies) were used as fluorescence dyes. Cage assembly of DegP was monitored by increased FRET ratio using the micro-plate reader (excitation 520 nm, emission 570 or 670 nm, Infinite M200pro, Tecan). Assays were performed in triplicates.

Series [2] addresses T2, DegP^S210A (Escherichia coli, UniProt P0C0V0, S236A).
T2 construct: pET22b-degP(full length; S210A)_6His; 6His (C); made in house
Kind of series: Isothermal titration calorimetry. The class given is binding. As to conditions: ITC; for Kd: Kd (M); for binding stoichiometry N: 298 K, single binding site model, DMB_CYYKI 0–2 molar ratio. On the procedure:
ITC experiments were performed using Affinity ITC instruments (TA Instruments, New Castle, DE, USA) at 298 K. DegP^S210A mutant (18.10 μM for 0–2 molar ratio and 109.33 μM for 0–0.4 molar ratio), which were prepared in a buffer containing 5 mM phosphate (pH 8.0) were degassed at 295 K prior to measurements. Using a micro-syringe, 2.5 μL of DMB_CYYKI (300 μM) was added at intervals of 200 s to the DegP solution in the cell with gentle stirring. As for other ligands, 2.5 μL of MMB_CYYKI (453 μM), TMB_CYYKI (218.46 μM) or 18–58 substrate peptide (80 μM) was added at intervals of 200 s to the DegP solution (27.33 μM, 37.45 μM, and 20 μM, respectively). Data were fitted to the single binding site model. In experiments with 0–2 and 0–2.6 molar ratio of DMB_CYYKI and MMB_CYYKI, respectively, the data with 0–0.3 molar ratio were excluded for the fitting.
Background: In ITC the heat of successive injections is recorded.

In series [3] the test system is E. coli imp4213. Kind of series: microbe, parasite or virus in culture. The class given is cell-based, Escherichia coli. As for the experimental part: The susceptibility of E. coli to activators was analyzed by determining the MICs. Two-fold serial dilutions of activators in LB broth were added to bacteria (OD600 = 0.1) in 96-well plates. Plates were incubated with shaking at 30 or 42 °C. After 12 h of incubation, the MIC was defined as the lowest concentration of the activator to inhibit the growth of bacteria by using a micro-plate reader (Absorbance 600 nm, Infinite M200pro, Tecan). The assay was performed in triplicates.

Series [4] concerns E.coli imp4213 strain. The class given is cell-based, Escherichia coli. As to conditions: 20 µg/ml alone; 12 h. As for the experimental part:
Time-kill experiment was performed by counting the viable bacteria at each time point. The E.coli imp4213 strain was cultured with streptomycin overnight and diluted 1:100 in fresh LB broth. When the OD600 value became 0.01, the activator was added at 2x MIC. The sample was incubated with shaking (180 rpm) at 30 °C or 42 °C, and aliquots were taken after 0, 1, 2, 4, 6, 8, 10, or 12 h. These aliquots were serially diluted (ten-fold) and plated on LB agar plates for colony counts. Experiments were performed in triplicates. The kill curves were plotted with the CFU/mL against time.
Experiments with cells in the stationary phase, however, were performed without dilution of the overnight culture.

The target in series [5] is DegP^S210A (E. coli) (UniProt P0C0V0). Kind of series: ITC; 298 K, 5 mM phosphate pH 8.0; compound or peptide injected into DegP^S210A in the cell; single binding site model; for DMB_CYYKI (0–2 molar ratio) and MMB_CYYKI (0–2.6) the data at 0–0.3 molar ratio were excluded from the fit.
Series [6] deals with T3, DegP^S210A (E. coli, UniProt P0C0V0 27-474, S210A).
T3 sequence: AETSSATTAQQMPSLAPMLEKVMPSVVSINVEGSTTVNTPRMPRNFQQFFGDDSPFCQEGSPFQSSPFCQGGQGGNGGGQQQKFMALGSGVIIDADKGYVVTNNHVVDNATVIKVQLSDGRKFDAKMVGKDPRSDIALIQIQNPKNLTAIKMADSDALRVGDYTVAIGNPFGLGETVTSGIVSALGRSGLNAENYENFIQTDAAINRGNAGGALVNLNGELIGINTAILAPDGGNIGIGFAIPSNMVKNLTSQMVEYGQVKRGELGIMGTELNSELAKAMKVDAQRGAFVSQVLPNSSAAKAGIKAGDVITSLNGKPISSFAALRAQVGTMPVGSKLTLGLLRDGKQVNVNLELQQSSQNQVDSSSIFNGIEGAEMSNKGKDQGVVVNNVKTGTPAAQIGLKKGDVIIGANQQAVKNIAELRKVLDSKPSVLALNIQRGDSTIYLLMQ
As to the kind of experiment: ITC.

Series [7] deals with B3. As to the kind of experiment: ITC; 298 K, 5 mM phosphate pH 8.0; compound or peptide injected into DegP^S210A in the cell; single binding site model; for DMB_CYYKI (0–2 molar ratio) and MMB_CYYKI (0–2.6) the data at 0–0.3 molar ratio were excluded from the fit. Conditions: both partners purified.
For series [8], the target named is T4, DegP^WT (E. coli) (UniProt P0C0V0).
T4 sequence: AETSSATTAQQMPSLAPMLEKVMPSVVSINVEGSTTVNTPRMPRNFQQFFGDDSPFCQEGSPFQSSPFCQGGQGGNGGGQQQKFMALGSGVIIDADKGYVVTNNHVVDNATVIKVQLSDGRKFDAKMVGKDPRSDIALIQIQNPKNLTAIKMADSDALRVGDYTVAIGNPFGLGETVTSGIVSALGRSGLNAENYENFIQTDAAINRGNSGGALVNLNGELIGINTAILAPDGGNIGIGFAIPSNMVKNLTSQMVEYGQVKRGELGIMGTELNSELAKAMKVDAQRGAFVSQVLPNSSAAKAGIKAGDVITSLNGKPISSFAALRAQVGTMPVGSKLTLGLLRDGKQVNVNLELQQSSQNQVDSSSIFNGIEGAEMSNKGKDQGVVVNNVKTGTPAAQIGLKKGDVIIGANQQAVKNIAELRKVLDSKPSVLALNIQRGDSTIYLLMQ

Series [9] concerns the molecule itself. As to the kind of experiment: crystal structure; DegP^S210A (198 µM) incubated with TMB_CYYKI (297 µM) in 5 mM phosphate pH 8.0 for 1 h at 295 K; hanging drop, PEG3350 10%, tacsimate 0.1 M pH 3.4; molecular replacement with 3OTP.
The mark [10] stands for this setting: model Independent, DMB_CYYKI 0-2 molar ratio.

*1 amine or outer side, *2 acyl side, *3 side chain or, on linkers, in order; H or OH if unused. Where a SMILES comes first, the peptide text is derived from it. Bridges are numbered along the chain shown (N, C = ends). Roman numbers before positions name the chains, in order. Where no end group is shown, it is not given here. The star is where a group is joined. TBMB = c1c(C[*:1])cc(C[*:3])cc1C[*:2]; mXylylene = c1cc(C[*:1])cc(C[*:2])c1; Bn = c1ccc(C*)cc1

T1 sequence (P0C0V0 27-474 C83S/C95S/S236A/N322C): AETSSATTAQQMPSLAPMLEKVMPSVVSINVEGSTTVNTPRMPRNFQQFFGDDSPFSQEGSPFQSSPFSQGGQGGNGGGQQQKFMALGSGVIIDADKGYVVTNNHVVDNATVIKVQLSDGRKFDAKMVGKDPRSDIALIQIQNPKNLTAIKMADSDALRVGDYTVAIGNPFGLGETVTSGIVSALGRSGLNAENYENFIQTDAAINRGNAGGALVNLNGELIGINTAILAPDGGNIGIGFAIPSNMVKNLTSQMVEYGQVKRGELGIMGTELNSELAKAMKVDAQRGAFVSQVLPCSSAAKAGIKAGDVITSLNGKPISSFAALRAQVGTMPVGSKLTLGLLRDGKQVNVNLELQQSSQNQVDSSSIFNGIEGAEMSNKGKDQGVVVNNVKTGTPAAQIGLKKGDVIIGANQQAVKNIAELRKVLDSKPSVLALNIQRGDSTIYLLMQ

For `CC[C@H](C)[C@H](NC(=O)[C@H](CCCCN)NC(=O)[C@H](Cc1ccc(O)cc1)NC(=O)[C@H](Cc1ccc(O)cc1)NC(=O)[C@@H](N)CSCc1cccc(CSC[C@H](N)C(=O)N[C@@H](Cc2ccc(O)cc2)C(=O)N[C@@H](Cc2ccc(O)cc2)C(=O)N[C@@H](CCCCN)C(=O)N[C@H](C(=O)O)[C@@H](C)CC)c1)C(=O)O` [DMB_CYYKI] (I: H-CYYKI-OH / II: H-CYYKI-OH; linker I:1-II:1 via mXylylene), in [1], the midpoint of the response, the EC50, lay at 1100 nM. Besides, the dissociation constant (Kd) in series [2] (model Independent, 0-0.4 molar ratio) came to 4.62e-07 M; in series [2] (setting [10]) it was 2.39e-07 M.
For the molecule `CC[C@H](C)[C@H](NC(=O)[C@H](CCCCN)NC(=O)[C@H](Cc1ccc(O)cc1)NC(=O)[C@H](Cc1ccc(O)cc1)NC(=O)[C@@H](N)CSCc1ccccc1)C(=O)O` [MMB_CYYKI] (H-C(Bn)YYKI-OH), the concentration giving a half-maximal response (EC50) in [1] is 6800 nM. For the same molecule, in [2] (setting [10]), the dissociation constant Kd is 6.32e-07 M.
For the molecule `CC[C@H](C)[C@H](NC(=O)[C@H](CCCCN)NC(=O)[C@H](Cc1ccc(O)cc1)NC(=O)[C@H](Cc1ccc(O)cc1)NC(=O)[C@@H](N)CSCc1cc(CSC[C@H](N)C(=O)N[C@@H](Cc2ccc(O)cc2)C(=O)N[C@@H](Cc2ccc(O)cc2)C(=O)N[C@@H](CCCCN)C(=O)N[C@H](C(=O)O)[C@@H](C)CC)cc(CSC[C@H](N)C(=O)N[C@@H](Cc2ccc(O)cc2)C(=O)N[C@@H](Cc2ccc(O)cc2)C(=O)N[C@@H](CCCCN)C(=O)N[C@H](C(=O)O)[C@@H](C)CC)c1)C(=O)O` [TMB_CYYKI] (I: H-CYYKI-OH / II: H-CYYKI-OH / III: H-CYYKI-OH; linker I:1-II:1-III:1 via TBMB), the EC50 in series [1] was 1700 nM. In [3] (imp4213, Fig. 3a and Supplementary Fig. 6b (30 °C and 42 °C), 12 h, LB), this molecule gave an MIC of 80 µM. The dissociation constant (Kd) in series [2] (setting [10]) was determined as 2.35e-07 M.
Regarding `O=C(N[C@H](CO)[C@H](O)c1ccc([N+](=O)[O-])cc1)C(Cl)Cl` [chloramphenicol, reference compound], in series [4], the “number of viable cells” value is given as “roughly at the same level”. In [3] (Escherichia coli, IMP4213), this molecule came in with an MIC of 2 µg/mL.
Regarding `CO[C@H]1/C=C/O[C@@]2(C)Oc3c(C)c(O)c4c(O)c(c(/C=N/N5CCN(C)CC5)c(O)c4c3C2=O)NC(=O)/C(C)=C\C=C\[C@H](C)[C@H](O)[C@@H](C)[C@@H](O)[C@@H](C)[C@H](OC(C)=O)[C@@H]1C` [rifampicin, reference compound], in series [3] (Escherichia coli, IMP4213), the MIC turned out to be 0.008 µg/mL.
Still for that read-out and setting: under `CN(C)[C@@H]1C(O)=C(C(N)=O)C(=O)[C@@]2(O)C(O)=C3C(=O)c4c(O)cccc4[C@@](C)(O)[C@H]3C[C@@H]12` [tetracycline, reference compound] stands 1 µg/mL.
Turning to “DNYRGYSLGNWVSAAKFESNFNTQATNRNTDGSTDYGILQI [18–58, reference compound]”, the “binding stoichiometry N” value amounted to 0.47 in series [2] and 0.473 in series [2] (listed as 18-58). In addition, in [2] (setting [10]), the “ΔH” value is -4.4 kcal/mol.
Take GTGDNYRGYSLGNWVSAAKFESNFNTQATNRNTDGSTDYGILQI [18–58 substrate peptide]: the stoichiometry N in series [5] is 0.47. For the same molecule, the Kd in series [6] was found to be 100 nM.

B1: MMB_CYYKI (peptide)
peptide: CYYKI
modifications: not fully specified (residue 1); printed as MMB_CYYKI
notes: also called compound with one CYYKI arm; one-arm compound; source: synthetic peptide (SPPS), reacted with benzyl bromide
With B1, the “stoichiometry N” value in series [7] turned out to be 1.11. In [6], this molecule returned a Kd of 630 nM.

B2: TMB_CKYRKL (peptide)
peptide: CKYRKL
modifications: also: three arms joined via TMB (trimer), linker at 1 via TMB, other end not in the chain
In turn, B2 showed a concentration of compound at maximal activation of reporter peptide (100 µM) cleavage by DegP; activation followed by inhibition at higher concentrations in [8] of 100 µM.
Take B3: in [9], the binding result is given as “binds”.

The EC50 is the concentration at which the effect is half-maximal. Lower therefore signals a more potent agent. Broadly, the Kd is the constant that tells how readily two partners part at equilibrium. The stoichiometry N is a count of units in the complex or per binding partner.
